Assay results published in the NIST ThermoML archive (doi:10.1016/j.jct.2019.05.021).

Assay: xn = mol fraction of the nth substance listed
Conditions: 100 kPa, Liquid; for viscosity: Falling or rolling sphere viscometry; for mass density: Vibrating tube method

CCCCCCCCCCCCCC(=O)OC [methyl tetradecanoate] + CC1CCCCC1
Conditions | mass density [kg/m3] | viscosity [mPa·s]
293.15 K, x2 = 0 | 867.17 | 4.557
293.15 K, x2 = 0.1 | 862.3 | 4.065
293.15 K, x2 = 0.2 | 856.82 | 3.591
293.15 K, x2 = 0.3 | 850.69 | 3.141
293.15 K, x2 = 0.4003 | 843.72 | 2.706
293.15 K, x2 = 0.5001 | 835.76 | 2.304
293.15 K, x2 = 0.6 | 826.55 | 1.925
293.15 K, x2 = 0.6999 | 815.89 | 1.578
293.15 K, x2 = 0.8 | 803.17 | 1.267
293.15 K, x2 = 0.8999 | 787.98 | 0.982
298.15 K, x2 = 0 | 863.35 | 3.979
298.15 K, x2 = 0.1 | 858.46 | 3.575
298.15 K, x2 = 0.2 | 853 | 3.176
298.15 K, x2 = 0.3 | 846.86 | 2.792
298.15 K, x2 = 0.4003 | 839.87 | 2.424
298.15 K, x2 = 0.5001 | 831.9 | 2.072
298.15 K, x2 = 0.6 | 822.64 | 1.743
298.15 K, x2 = 0.6999 | 811.92 | 1.438
298.15 K, x2 = 0.8 | 799.13 | 1.163
298.15 K, x2 = 0.8999 | 783.83 | 0.91
303.15 K, x2 = 0 | 859.54 | 3.519
303.15 K, x2 = 0.1 | 854.64 | 3.179
303.15 K, x2 = 0.2 | 849.17 | 2.838
303.15 K, x2 = 0.3 | 843.02 | 2.507
303.15 K, x2 = 0.4003 | 836.01 | 2.19
303.15 K, x2 = 0.5001 | 828.01 | 1.884
303.15 K, x2 = 0.6 | 818.71 | 1.6
303.15 K, x2 = 0.6999 | 807.93 | 1.327
303.15 K, x2 = 0.8 | 795.07 | 1.078
303.15 K, x2 = 0.8999 | 779.65 | 0.848
308.15 K, x2 = 0 | 855.74 | 3.093
308.15 K, x2 = 0.1 | 850.83 | 2.803
308.15 K, x2 = 0.2 | 845.36 | 2.515
308.15 K, x2 = 0.3 | 839.19 | 2.234
308.15 K, x2 = 0.4003 | 832.16 | 1.962
308.15 K, x2 = 0.5001 | 824.11 | 1.695
308.15 K, x2 = 0.6 | 814.78 | 1.445
308.15 K, x2 = 0.6999 | 803.92 | 1.205
308.15 K, x2 = 0.8 | 791 | 0.987
308.15 K, x2 = 0.8999 | 775.46 | 0.782
313.15 K, x2 = 0 | 851.94 | 2.797
313.15 K, x2 = 0.1 | 847.02 | 2.552
313.15 K, x2 = 0.2 | 841.53 | 2.302
313.15 K, x2 = 0.3 | 835.34 | 2.054
313.15 K, x2 = 0.4003 | 828.29 | 1.803
313.15 K, x2 = 0.5001 | 820.21 | 1.564
313.15 K, x2 = 0.6 | 810.83 | 1.336
313.15 K, x2 = 0.6999 | 799.9 | 1.121
313.15 K, x2 = 0.8 | 786.91 | 0.918
313.15 K, x2 = 0.8999 | 771.26 | 0.735
318.15 K, x2 = 0 | 848.14 | 2.544
318.15 K, x2 = 0.1 | 843.22 | 2.325
318.15 K, x2 = 0.2 | 837.71 | 2.101
318.15 K, x2 = 0.3 | 831.5 | 1.879
318.15 K, x2 = 0.4003 | 824.42 | 1.661
318.15 K, x2 = 0.5001 | 816.31 | 1.45
318.15 K, x2 = 0.6 | 806.88 | 1.249
318.15 K, x2 = 0.6999 | 795.9 | 1.052
318.15 K, x2 = 0.8 | 782.82 | 0.868
318.15 K, x2 = 0.8999 | 767.04 | 0.695
323.15 K, x2 = 0 | 844.34 | 2.308
323.15 K, x2 = 0.1 | 839.41 | 2.115
323.15 K, x2 = 0.2 | 833.87 | 1.92
323.15 K, x2 = 0.3 | 827.63 | 1.728
323.15 K, x2 = 0.4003 | 820.53 | 1.534
323.15 K, x2 = 0.5001 | 812.38 | 1.345
323.15 K, x2 = 0.6 | 802.92 | 1.161
323.15 K, x2 = 0.6999 | 791.88 | 0.985
323.15 K, x2 = 0.8 | 778.71 | 0.819
323.15 K, x2 = 0.8999 | 762.81 | 0.658
